The subject of one test is EBC-1. Kind of test: cells. The following applies: Homo sapiens, EBC-1, 72 h.
In another test the test system is A549. Kind of test: cells. The following applies: Homo sapiens, A549, 72 h.
A further test concerns HT-29. The test is described as follows: cells. The following applies: Homo sapiens, HT-29, 72 h.
Test [1] deals with K562. The test is described as follows: cells. The following applies: Homo sapiens, K562, 72 h.
Description: Antiproliferative activity against human K562 cells incubated for 3 days by MTT assay
The test system of test [2] is K562. Kind of test: Induction of cell cycle arrest in human K562 cells assessed as accumulation at sub G1 phase at 10 uM incubated for 48 hrs by Rnase/PI staining based flow cytometry (reference value: 0.92 +/- 0.12). Format: functional.
Test [3] relates to K562. Kind of test: Induction of cell cycle arrest in human K562 cells assessed as accumulation at G0/G1 phase at 10 uM incubated for 48 hrs by Rnase/PI staining based flow cytometry (reference value: 57.34 +/- 3.14). Type of test: functional.
In test [4] the test system is K562. The test is described as follows: Induction of cell cycle arrest in human K562 cells assessed as accumulation at S phase at 10 uM incubated for 48 hrs by Rnase/PI staining based flow cytometry (reference value: 17.95 +/- 3.42). Type of test: functional. On the technique in general: A flow cytometer gives signals particle by particle.
In test [5] the test system is K562. The test is described as follows: Induction of cell cycle arrest in human K562 cells assessed as accumulation at G2/M phase at 10 uM incubated for 48 hrs by Rnase/PI staining based flow cytometry (reference value: 23.78 +/- 6.09). Type of test: functional.
Test [6] relates to K562. Kind of test: Induction of cell cycle arrest in human K562 cells assessed as accumulation at sub G1 phase at 50 uM incubated for 48 hrs by Rnase/PI staining based flow cytometry (reference value: 0.92 +/- 0.12). Format: functional.
Test [7] relates to K562. The test is described as follows: Induction of cell cycle arrest in human K562 cells assessed as accumulation at G0/G1 phase at 50 uM incubated for 48 hrs by Rnase/PI staining based flow cytometry (reference value: 57.34 +/- 3.14). Format: functional.
The test system of test [8] is K562. Kind of test: Induction of cell cycle arrest in human K562 cells assessed as accumulation at S phase at 50 uM incubated for 48 hrs by Rnase/PI staining based flow cytometry (reference value: 17.95 +/- 3.42). Format: functional.
For test [9], the system named is K562. The test is described as follows: Induction of cell cycle arrest in human K562 cells assessed as accumulation at G2/M phase at 50 uM incubated for 48 hrs by Rnase/PI staining based flow cytometry (reference value: 23.78 +/- 6.09). Format: functional.
For test [10], the target named is Mast/stem cell growth factor receptor Kit (Homo sapiens) (UniProt P10721). The test is described as follows: Inhibition of KIT (unknown origin) at 10 uM by radiometric assay relative to control.
Test [11] addresses Vascular endothelial growth factor receptor 2 (Homo sapiens) (UniProt P35968). Kind of test: Inhibition of KDR (unknown origin) at 10 uM by radiometric assay relative to control.
The target of test [12] is Mitogen-activated protein kinase 3 (Homo sapiens) (UniProt P27361). The test is described as follows: Inhibition of MAPK3 (unknown origin) at 10 uM by radiometric assay relative to control.
The target of test [13] is Dual specificity mitogen-activated protein kinase kinase 1 (Homo sapiens) (UniProt Q02750). Kind of test: Inhibition of MAP2K1 (unknown origin) at 10 uM by radiometric assay relative to control.
Test [14] concerns the target Hepatocyte growth factor receptor (Homo sapiens) (UniProt P08581). The test is described as follows: Inhibition of MET (unknown origin) at 10 uM by radiometric assay relative to control.
For test [15], the target named is Macrophage-stimulating protein receptor (Homo sapiens) (UniProt Q04912). Kind of test: Inhibition of MST1R (unknown origin) at 10 uM by radiometric assay relative to control.
Test [16] deals with Platelet-derived growth factor receptor alpha (Homo sapiens) (UniProt P16234). The test is described as follows: Inhibition of PDGFRA (unknown origin) at 10 uM by radiometric assay relative to control.
Test [17] concerns the target Platelet-derived growth factor receptor beta (Homo sapiens) (UniProt P09619). The test is described as follows: Inhibition of PDGFRB (unknown origin) at 10 uM by radiometric assay relative to control.
For test [18], the target named is Receptor-type tyrosine-protein kinase FLT3 (Homo sapiens) (UniProt P36888). The test is described as follows: Inhibition of human FLT3 at 10 uM by radiometric assay relative to control.
The test system of test [19] is T1, Receptor-type tyrosine-protein kinase FLT3 (Homo sapiens), P36888 [D835Y].
T1 sequence (whole entry): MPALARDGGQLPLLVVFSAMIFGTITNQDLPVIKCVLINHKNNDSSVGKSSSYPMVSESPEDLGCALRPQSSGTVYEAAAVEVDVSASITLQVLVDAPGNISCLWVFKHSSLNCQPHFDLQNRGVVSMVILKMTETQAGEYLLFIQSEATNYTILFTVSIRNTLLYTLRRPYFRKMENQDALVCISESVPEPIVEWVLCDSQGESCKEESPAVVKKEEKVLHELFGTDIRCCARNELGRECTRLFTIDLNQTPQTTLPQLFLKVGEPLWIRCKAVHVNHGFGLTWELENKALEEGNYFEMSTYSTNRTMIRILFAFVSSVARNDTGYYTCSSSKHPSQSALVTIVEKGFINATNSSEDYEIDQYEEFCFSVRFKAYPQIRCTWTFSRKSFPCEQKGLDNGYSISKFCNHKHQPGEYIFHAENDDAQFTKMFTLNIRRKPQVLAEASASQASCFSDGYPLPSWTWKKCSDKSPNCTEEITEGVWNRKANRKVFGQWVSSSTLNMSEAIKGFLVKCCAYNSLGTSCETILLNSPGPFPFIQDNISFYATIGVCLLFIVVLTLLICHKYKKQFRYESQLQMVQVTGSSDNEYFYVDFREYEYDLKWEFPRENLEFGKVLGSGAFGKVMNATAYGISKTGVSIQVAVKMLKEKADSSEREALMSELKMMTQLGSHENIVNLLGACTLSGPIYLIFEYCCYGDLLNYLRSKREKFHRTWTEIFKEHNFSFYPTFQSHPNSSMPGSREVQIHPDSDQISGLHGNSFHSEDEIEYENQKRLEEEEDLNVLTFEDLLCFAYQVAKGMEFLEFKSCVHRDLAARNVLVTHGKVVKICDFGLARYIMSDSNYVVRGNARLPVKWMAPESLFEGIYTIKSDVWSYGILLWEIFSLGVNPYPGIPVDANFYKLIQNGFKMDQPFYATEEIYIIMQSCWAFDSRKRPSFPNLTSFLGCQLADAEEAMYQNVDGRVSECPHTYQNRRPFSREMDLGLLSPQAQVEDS
Kind of test: Inhibition of human FLT3 D835Y mutant at 10 uM by radiometric assay relative to control.

For test [20], the target named is Receptor-type tyrosine-protein kinase FLT3 (Homo sapiens) (UniProt P36888). The test is described as follows: Inhibition of human FLT3 at 25 uM by radiometric assay relative to control.
Test [21] concerns T1, Receptor-type tyrosine-protein kinase FLT3 (Homo sapiens), P36888 [D835Y]. The test is described as follows: Inhibition of human FLT3 D835Y mutant at 25 uM by radiometric assay relative to control.

pIC50: −log10 of the molar value.

In general, pIC50 refers to the IC50 on a negative log10 scale, so that one unit is a factor of ten. The low end stands for a large IC50, the high end for a small IC50. What is called inhibition is the change of the read-out against control, counted positive when it falls.

Macrophage-stimulating protein receptor (Homo sapiens), sequence (Q04912 25-304 limits assumed): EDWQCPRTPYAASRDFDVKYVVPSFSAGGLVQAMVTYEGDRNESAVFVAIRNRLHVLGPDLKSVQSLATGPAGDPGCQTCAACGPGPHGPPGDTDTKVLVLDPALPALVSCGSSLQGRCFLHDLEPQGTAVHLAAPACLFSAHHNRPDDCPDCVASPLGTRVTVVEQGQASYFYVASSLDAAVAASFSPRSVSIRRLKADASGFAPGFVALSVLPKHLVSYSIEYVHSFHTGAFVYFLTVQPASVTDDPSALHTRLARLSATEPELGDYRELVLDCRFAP
Macrophage-stimulating protein receptor (Homo sapiens), sequence (Q04912 310-1400 limits assumed): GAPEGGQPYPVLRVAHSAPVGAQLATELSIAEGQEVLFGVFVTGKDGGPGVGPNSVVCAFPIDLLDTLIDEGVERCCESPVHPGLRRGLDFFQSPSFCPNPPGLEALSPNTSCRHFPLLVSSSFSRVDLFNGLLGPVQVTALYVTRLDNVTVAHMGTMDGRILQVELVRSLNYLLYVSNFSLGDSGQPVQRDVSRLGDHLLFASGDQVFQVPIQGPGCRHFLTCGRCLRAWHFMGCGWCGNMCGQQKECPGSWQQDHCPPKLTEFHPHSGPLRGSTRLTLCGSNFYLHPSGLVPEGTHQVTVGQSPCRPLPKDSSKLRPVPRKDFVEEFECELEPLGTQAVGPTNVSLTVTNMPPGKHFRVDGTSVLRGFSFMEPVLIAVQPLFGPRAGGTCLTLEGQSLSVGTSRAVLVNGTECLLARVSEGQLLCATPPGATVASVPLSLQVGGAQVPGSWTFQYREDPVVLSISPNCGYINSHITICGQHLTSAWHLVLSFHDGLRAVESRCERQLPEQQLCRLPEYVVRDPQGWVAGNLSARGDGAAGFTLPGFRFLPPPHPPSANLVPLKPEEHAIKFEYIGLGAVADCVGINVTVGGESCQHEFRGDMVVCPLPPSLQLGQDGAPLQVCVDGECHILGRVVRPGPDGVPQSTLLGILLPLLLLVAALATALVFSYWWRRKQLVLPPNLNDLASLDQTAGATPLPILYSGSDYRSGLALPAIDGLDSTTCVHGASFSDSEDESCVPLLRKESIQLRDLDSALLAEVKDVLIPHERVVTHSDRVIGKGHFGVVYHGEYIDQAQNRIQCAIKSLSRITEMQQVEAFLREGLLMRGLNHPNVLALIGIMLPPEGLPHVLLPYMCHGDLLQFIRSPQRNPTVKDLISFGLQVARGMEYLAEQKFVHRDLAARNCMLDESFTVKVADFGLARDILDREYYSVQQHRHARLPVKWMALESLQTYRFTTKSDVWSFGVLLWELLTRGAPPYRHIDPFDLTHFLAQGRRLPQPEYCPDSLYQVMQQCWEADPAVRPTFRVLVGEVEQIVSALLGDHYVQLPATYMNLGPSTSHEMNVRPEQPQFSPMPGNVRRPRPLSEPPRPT
Vascular endothelial growth factor receptor 2 (Homo sapiens), sequence (P35968 whole entry): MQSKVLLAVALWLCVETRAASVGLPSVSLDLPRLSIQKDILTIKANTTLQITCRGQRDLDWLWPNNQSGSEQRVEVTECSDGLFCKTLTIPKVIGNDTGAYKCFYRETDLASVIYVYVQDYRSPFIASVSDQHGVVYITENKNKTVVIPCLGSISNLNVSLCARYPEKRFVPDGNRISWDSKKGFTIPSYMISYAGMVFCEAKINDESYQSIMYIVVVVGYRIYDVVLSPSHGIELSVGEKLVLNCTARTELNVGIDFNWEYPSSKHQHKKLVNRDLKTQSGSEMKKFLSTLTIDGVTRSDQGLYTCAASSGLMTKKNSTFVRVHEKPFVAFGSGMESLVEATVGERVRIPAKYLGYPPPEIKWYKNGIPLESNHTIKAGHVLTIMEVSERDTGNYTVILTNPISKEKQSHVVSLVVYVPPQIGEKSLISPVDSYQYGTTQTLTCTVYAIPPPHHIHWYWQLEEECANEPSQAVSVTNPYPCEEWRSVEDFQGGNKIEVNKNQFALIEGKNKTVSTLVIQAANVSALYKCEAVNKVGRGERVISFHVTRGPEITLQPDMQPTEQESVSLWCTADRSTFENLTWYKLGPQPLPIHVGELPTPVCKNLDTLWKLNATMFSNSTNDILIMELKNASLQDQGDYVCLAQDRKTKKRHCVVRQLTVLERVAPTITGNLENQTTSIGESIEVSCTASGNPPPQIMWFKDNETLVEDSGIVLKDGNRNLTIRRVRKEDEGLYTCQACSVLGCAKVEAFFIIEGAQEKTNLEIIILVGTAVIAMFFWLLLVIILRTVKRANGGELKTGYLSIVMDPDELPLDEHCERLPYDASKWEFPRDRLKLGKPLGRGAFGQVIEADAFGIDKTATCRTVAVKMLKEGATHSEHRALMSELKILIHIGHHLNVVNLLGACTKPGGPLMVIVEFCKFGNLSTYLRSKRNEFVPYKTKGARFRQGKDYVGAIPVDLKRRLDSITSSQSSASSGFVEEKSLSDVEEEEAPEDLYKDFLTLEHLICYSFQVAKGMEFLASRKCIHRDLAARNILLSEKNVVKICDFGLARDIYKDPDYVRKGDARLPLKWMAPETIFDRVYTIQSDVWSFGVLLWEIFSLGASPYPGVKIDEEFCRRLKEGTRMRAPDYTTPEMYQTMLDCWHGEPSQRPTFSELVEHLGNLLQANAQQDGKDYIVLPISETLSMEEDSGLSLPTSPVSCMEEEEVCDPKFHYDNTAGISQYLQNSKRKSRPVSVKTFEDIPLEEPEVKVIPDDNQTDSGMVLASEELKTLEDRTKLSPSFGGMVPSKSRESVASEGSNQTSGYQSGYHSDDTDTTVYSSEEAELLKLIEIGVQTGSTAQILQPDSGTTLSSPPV
Mitogen-activated protein kinase 3 (Homo sapiens), sequence (P27361 whole entry): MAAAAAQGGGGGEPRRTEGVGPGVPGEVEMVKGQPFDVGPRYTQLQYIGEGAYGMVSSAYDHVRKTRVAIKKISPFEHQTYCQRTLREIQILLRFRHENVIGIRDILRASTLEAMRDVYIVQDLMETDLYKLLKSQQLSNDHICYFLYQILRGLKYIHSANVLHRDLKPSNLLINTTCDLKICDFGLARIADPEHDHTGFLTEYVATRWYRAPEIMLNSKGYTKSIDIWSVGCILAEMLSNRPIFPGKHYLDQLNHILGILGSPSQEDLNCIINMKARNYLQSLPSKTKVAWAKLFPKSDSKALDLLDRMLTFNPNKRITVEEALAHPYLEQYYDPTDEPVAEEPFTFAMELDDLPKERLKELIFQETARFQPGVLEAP
Dual specificity mitogen-activated protein kinase kinase 1 (Homo sapiens), sequence (Q02750 whole entry): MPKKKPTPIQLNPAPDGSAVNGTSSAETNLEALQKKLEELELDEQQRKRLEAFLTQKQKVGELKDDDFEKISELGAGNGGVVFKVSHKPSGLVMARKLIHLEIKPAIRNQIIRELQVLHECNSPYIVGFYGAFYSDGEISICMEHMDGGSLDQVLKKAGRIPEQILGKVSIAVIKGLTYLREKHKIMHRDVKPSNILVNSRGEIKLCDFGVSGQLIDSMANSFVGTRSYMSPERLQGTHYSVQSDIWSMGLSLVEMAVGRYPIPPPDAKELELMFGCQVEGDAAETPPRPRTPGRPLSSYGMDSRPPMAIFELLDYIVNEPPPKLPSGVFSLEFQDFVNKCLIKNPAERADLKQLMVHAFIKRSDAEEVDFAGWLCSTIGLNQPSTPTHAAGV
Platelet-derived growth factor receptor alpha (Homo sapiens), sequence (P16234 whole entry): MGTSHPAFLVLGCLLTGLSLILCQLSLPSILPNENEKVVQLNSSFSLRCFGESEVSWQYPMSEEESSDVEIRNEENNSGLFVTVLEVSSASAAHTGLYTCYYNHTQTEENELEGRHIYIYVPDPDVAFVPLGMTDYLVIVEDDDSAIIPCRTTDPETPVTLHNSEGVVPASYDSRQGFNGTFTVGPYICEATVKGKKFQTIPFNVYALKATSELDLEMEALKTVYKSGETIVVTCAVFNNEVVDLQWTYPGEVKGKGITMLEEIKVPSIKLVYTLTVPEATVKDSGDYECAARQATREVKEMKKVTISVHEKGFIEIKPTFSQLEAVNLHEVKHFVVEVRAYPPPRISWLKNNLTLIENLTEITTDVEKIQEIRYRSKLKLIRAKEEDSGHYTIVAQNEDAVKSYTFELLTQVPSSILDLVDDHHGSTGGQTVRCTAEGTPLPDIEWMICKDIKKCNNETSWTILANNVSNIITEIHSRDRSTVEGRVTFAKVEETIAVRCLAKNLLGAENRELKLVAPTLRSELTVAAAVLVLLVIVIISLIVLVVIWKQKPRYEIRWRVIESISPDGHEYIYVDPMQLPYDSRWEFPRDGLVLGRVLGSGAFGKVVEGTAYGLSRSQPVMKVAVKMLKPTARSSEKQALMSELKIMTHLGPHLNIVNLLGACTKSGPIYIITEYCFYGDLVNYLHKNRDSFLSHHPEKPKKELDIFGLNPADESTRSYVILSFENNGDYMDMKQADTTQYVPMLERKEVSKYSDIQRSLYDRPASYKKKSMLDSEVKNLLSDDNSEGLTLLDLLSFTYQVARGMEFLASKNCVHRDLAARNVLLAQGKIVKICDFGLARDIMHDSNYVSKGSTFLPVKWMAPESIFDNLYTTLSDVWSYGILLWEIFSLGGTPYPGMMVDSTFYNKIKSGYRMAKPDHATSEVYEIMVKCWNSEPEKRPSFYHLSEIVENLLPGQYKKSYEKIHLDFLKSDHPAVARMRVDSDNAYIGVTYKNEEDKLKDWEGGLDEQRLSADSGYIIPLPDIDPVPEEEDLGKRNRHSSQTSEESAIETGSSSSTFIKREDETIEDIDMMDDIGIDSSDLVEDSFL
Description for A549: Antiproliferative activity against human A549 cells incubated for 3 days by MTT assay
Description for EBC-1: Antiproliferative activity against human EBC-1 cells incubated for 3 days by MTT assay
Description for HT-29: Antiproliferative activity against human HT-29 cells incubated for 3 days by MTT assay

Consider `COc1cc2nccc(Oc3ccc(NC(=O)C4(C(=O)Nc5ccc(F)cc5)CC4)cc3)c2cc1OC` [CABOZANTINIB], for which the pIC50 was 7.23 in the test with EBC-1, 4.79 in the test on A549, 5.43 in the test with HT-29 and 5.72 with K562 [1].

Regarding `CCCCCN1C(=O)C2(NC(=O)c3ccccc3N2)c2ccccc21` (centres undefined), the pIC50 in the test with EBC-1, in the test on A549, with HT-29 and with K562 [1] was below 4.00 each time.

As to `O=C1NC2(Nc3c(Br)cc(Br)cc31)C(=O)N(Cc1ccc(Cl)c(Cl)c1)c1ccccc12` (centres undefined), the pIC50 was 4.70 in the test with EBC-1, below 4.00 in the test with A549, 4.61 with HT-29 and below 4.00 with K562 [1].

`CCCCCN1C(=O)C2(NC(=O)c3cc(Br)cc(Br)c3N2)c2ccccc21` (centres undefined): the pIC50 was 4.61 in the test on EBC-1, 4.33 in the test with A549, 4.28 in the test with HT-29 and below 4.00 in the test on K562 [1].

Turning to `CC(C)(C)c1ccc(CN2C(=O)C3(NC(=O)c4cc(Br)cc(Br)c4N3)c3ccccc32)cc1` (centres undefined), the pIC50 with EBC-1 was 4.71; with A549 it was 4.34; in the test on HT-29, below 4.00; with K562 [1], below 4.00.

On to `O=C1NC2(Nc3ccccc31)C(=O)N(Cc1ccc(Br)cc1)c1ccccc12` (centres undefined), for which the pIC50 in the test on EBC-1 was 4.41; with A549 it was 4.40; with HT-29, 4.14; in the test with K562 [1], 4.70.

For the compound `CCN1C(=O)C2(NC(=O)c3ccccc3N2)c2ccccc21` (centres undefined), the pIC50 in the test on EBC-1 is below 4.00; with A549, below 4.00; in the test on HT-29, 4.55; with K562 [1], 4.30.

In the case of `Cc1ccc(CN2C(=O)C3(NC(=O)c4ccccc4N3)c3ccccc32)cc1` (centres undefined), the negative-log IC50 (pIC50) in the test with EBC-1 is 4.69; in the test with A549, 4.58; in the test with HT-29, 4.53.

As for `O=C1NC2(Nc3c(Br)cc(Br)cc31)C(=O)N(Cc1ccc(F)cc1)c1ccccc12` (centres undefined), the pIC50 with EBC-1 is 4.46; in the test with A549 it was 4.34; in the test on HT-29 it was below 4.00; in the test on K562 [1], below 4.00.

Regarding `O=C1NC2(Nc3c(Br)cc(Br)cc31)C(=O)N(Cc1ccc(Cl)cc1)c1ccccc12` (centres undefined), the Activity in the test with K562 [2] was found to be 1.04%; in the test on K562 [3], 57.29%; in the test with K562 [4] it was 17.89%; in the test on K562 [5], 23.78%; in the test with K562 [6], 1.41%; in the test on K562 [7] it was 50.3%. Also, the Activity is on record as 21.06% with K562 [8] and 27.23% in the test on K562 [9]. Further, the inhibition is 1% in [10]; 12% in [11]; -4% in test [12]; -6% in test [13]; 12% in [14]; 2% in test [15]. In addition, the inhibition in test [16] was 5%; in test [17] it was -1%; in test [18], 18%; in [19] it was 5%; in test [20], 19%; in [21], -6%. Besides, the pIC50 is 4.98 in the test with EBC-1, 4.57 in the test on A549, 4.90 with HT-29 and 4.86 in the test with K562 [1].
